Results from ChEMBL document CHEMBL4316596, “Antimicrobial Peptides with High Proteolytic Resistance for Combating Gram-Negative Bacteria” (J Med Chem, 2019).
Calls of active or inactive are those of the source. The rule behind the calls is not given here.

Assays:
Escherichia coli [1] = assay: Bactericidal activity against Escherichia coli ATCC 25922 incubated for 4 hrs followed by culture spread on agar plates and cultured overnight in presence of 0.5 mg/ml chymotrypsin; type: functional; details: ATCC 25922, 4 h, read-out: MBC>99.9
Acinetobacter baumannii = assay: Bactericidal activity against Acinetobacter baumannii incubated for 4 hrs followed by culture spread on agar plates and cultured overnight; type: functional; details: read-out: MBC>99.9
[2] = Selectivity ratio of IC50 for pig IPECJ2 cells to geometric mean of the peptide MBC for bacteria
Escherichia coli [3] = assay: Bactericidal activity against Escherichia coli ATCC 25922 incubated for 4 hrs followed by culture spread on agar plates and cultured overnight in presence of 12.5% serum albumin; type: functional; details: ATCC 25922, 4 h, read-out: MBC>99.9
Escherichia coli [4] = assay: Bactericidal activity against Escherichia coli K99 incubated for 4 hrs followed by culture spread on agar plates and cultured overnight; type: functional; details: K99, 4 h, read-out: MBC>99.9
Pseudomonas aeruginosa [5] = assay: Antimicrobial activity against Pseudomonas aeruginosa PAO1 after 24 hrs by NCCLS-protocol based assay; type: functional; details: PAO1, 24 h
Escherichia coli [6] = assay: Bactericidal activity against Escherichia coli ATCC 25922 incubated for 4 hrs followed by culture spread on agar plates and cultured overnight in presence of ZnCl2; type: functional; details: ATCC 25922, 4 h, read-out: MBC>99.9
Escherichia coli [7] = assay: Bactericidal activity against Escherichia coli ATCC 25922 incubated for 4 hrs followed by culture spread on agar plates and cultured overnight in presence of 1 mg/ml trypsin; type: functional; details: ATCC 25922, 4 h, read-out: MBC>99.9
Escherichia coli [8] = assay: Bactericidal activity against Escherichia coli ATCC 25922 incubated for 4 hrs followed by culture spread on agar plates and cultured overnight in presence of 1 mg/ml chymotrypsin; type: functional; details: ATCC 25922, 4 h, read-out: MBC>99.9
Escherichia coli [9] = assay: Bactericidal activity against Escherichia coli ATCC 25922 incubated for 4 hrs followed by culture spread on agar plates and cultured overnight in presence of 2 mg/ml chymotrypsin; type: functional; details: ATCC 25922, 4 h, read-out: MBC>99.9
Escherichia coli [10] = assay: Bactericidal activity against Escherichia coli ATCC 25922 incubated for 4 hrs followed by culture spread on agar plates and cultured overnight in presence of 25% serum albumin; type: functional; details: ATCC 25922, 4 h, read-out: MBC>99.9
[11] = Selectivity ratio of IC50 for HEK293T cells to geometric mean of the peptide MBC for bacteria
Pseudomonas aeruginosa [12] = assay: Bactericidal activity against Pseudomonas aeruginosa 25349 clinical isolates incubated for 4 hrs followed by culture spread on agar plates and cultured overnight; type: functional; details: Pseudomonas aeruginosa, 25349, 4 h; read-out: MBC>99.9
Escherichia coli [13] = assay: Antimicrobial activity against Escherichia coli 078 after 24 hrs by NCCLS-protocol based assay; type: functional; details: Escherichia coli, 078, 24 h
Escherichia coli [14] = assay: Antimicrobial activity against Escherichia coli K99 after 24 hrs by NCCLS-protocol based assay; type: functional; details: K99, 24 h
Escherichia coli [15] = assay: Antimicrobial activity against Escherichia coli UB1005 after 24 hrs by NCCLS-protocol based assay; type: functional; details: UB1005, 24 h
Escherichia coli [16] = assay: Bactericidal activity against Escherichia coli ATCC 25922 incubated for 4 hrs followed by culture spread on agar plates and cultured overnight in presence of 0.5 mg/ml trypsin; type: functional; details: ATCC 25922, 4 h, read-out: MBC>99.9
Pseudomonas aeruginosa [17] = assay: Antimicrobial activity against Pseudomonas aeruginosa CICC 21625 clinical isolates after 24 hrs by NCCLS-protocol based assay; type: functional; details: CICC 21625, 24 h
Salmonella typhimurium [18] = assay: Bactericidal activity against Salmonella typhimurium ATCC 14028 incubated for 4 hrs followed by culture spread on agar plates and cultured overnight; type: functional, Salmonella enterica subsp. enterica serovar Typhimurium; details: Salmonella enterica, ATCC 14028, 4 h; read-out: MBC>99.9
Escherichia coli [19] = assay: Bactericidal activity against Escherichia coli ATCC 25922 incubated for 4 hrs followed by culture spread on agar plates and cultured overnight in presence of 4 mg/ml chymotrypsin; type: functional; details: ATCC 25922, 4 h, read-out: MBC>99.9
Trypsin = Trypsin (Homo sapiens, UniProt P07477+P07478+P35030); assay: Stability of the compound assessed as trypsin (unknown origin)-mediated compound hydrolysis after 8 hrs by SDS-PAGE analysis; type: ADME, protein assay
[20] = Stability of the compound assessed as Tritirachium album proteinase K-mediated compound hydrolysis by measuring compound helicity by CD spectroscopy; type: ADME; details: parengyodontium album
[21] = Hemolytic activity against human RBC at 1 to 128 uM after 1 hr; type: ADME, cell-based, Erythrocyte; details: red blood cells (erythrocytes), read-out: Activity
Escherichia coli [22] = assay: Bactericidal activity against Escherichia coli ATCC 25922 incubated for 4 hrs followed by culture spread on agar plates and cultured overnight in presence of KCl; type: functional; details: ATCC 25922, 4 h, read-out: MBC>99.9
[23] = Selectivity ratio of HC10 for human RBC to geometric mean of the peptide MBC for bacteria
[24] = Bactericidal activity against Salmonella pullorum C7913 incubated for 4 hrs followed by culture spread on agar plates and cultured overnight; type: functional, Salmonella enterica subsp. enterica serovar Pullorum; details: Salmonella enterica, C7913, 4 h; read-out: MBC>99.9
Pseudomonas aeruginosa [25] = assay: Antimicrobial activity against Pseudomonas aeruginosa ATCC 27853 after 24 hrs by NCCLS-protocol based assay; type: functional; details: ATCC 27853, 24 h
[26] = Stability of the compound assessed as pepsin (unknown origin)-mediated compound hydrolysis after 8 hrs by SDS-PAGE analysis; type: ADME; details: human
HEK-293T = assay: Cytotoxicity against HEK293T cells assessed as cell death after 18 to 24 hrs by MTT assay; type: cell-based; details: Homo sapiens
[27] = Stability of the compound assessed as Tritirachium album proteinase K-mediated compound hydrolysis after 8 hrs by SDS-PAGE analysis; type: ADME; details: parengyodontium album
Escherichia coli [28] = assay: Bactericidal activity against Escherichia coli ATCC 25922 incubated for 4 hrs followed by culture spread on agar plates and cultured overnight in presence of MgCl2; type: functional; details: ATCC 25922, 4 h, read-out: MBC>99.9
Pseudomonas aeruginosa [29] = assay: Bactericidal activity against Pseudomonas aeruginosa CICC 21625 clinical isolates incubated for 4 hrs followed by culture spread on agar plates and cultured overnight; type: functional; details: CICC 21625, 4 h, read-out: MBC>99.9
Escherichia coli [30] = assay: Bactericidal activity against Escherichia coli ATCC 25922 incubated for 4 hrs followed by culture spread on agar plates and cultured overnight in presence of 0.125 to 4 mg/ml proteinase K; type: functional, organism-based
Salmonella typhimurium [31] = assay: Antimicrobial activity against Salmonella typhimurium C7731 after 24 hrs by NCCLS-protocol based assay; type: functional, Salmonella enterica subsp. enterica serovar Typhimurium; details: Salmonella enterica, C7731, 24 h
Chymotrypsin = Chymotrypsin (Homo sapiens, UniProt Q99895+P17538+P40313+Q6GPI1); assay: Stability of the compound assessed as chymotrypsin (unknown origin)-mediated compound hydrolysis after 4 hrs by SDS-PAGE analysis; type: ADME, protein assay
[32] = Stability of the compound assessed as pepsin (unknown origin)-mediated compound hydrolysis by measuring compound helicity by CD spectroscopy; type: ADME; details: human
Escherichia coli [33] = assay: Antibacterial activity against Escherichia coli ATCC 25922 infected in ICR mouse assessed as mouse survival at 5 mg/kg, ip dosed at 0.5, 2, 4 and 8 hrs post-infection; type: functional; details: ATCC 25922, ip

Substance | MBC (Escherichia coli [1]) | MBC (Acinetobacter baumannii) | Ratio [2] | MBC (Escherichia coli [3]) | MBC (Escherichia coli [4]) | MIC95 (Pseudomonas aeruginosa [5]) | MBC (Escherichia coli [6]) | MBC (Escherichia coli [7]) | MBC (Escherichia coli [8]) | MBC (Escherichia coli [9]) | MBC (Escherichia coli [10]) | Ratio [11] | MBC (Pseudomonas aeruginosa [12]) | MIC95 (Escherichia coli [13]) | MIC95 (Escherichia coli [14]) | MIC95 (Escherichia coli [15]) | MBC (Escherichia coli [16]) | MIC95 (Pseudomonas aeruginosa [17]) | MBC (Salmonella typhimurium [18]) | MBC (Escherichia coli [19]) | also measured
H-IKPIIKPIIKPIIKPIIKPIIKPIIKPI-NH2 | 16 µM | 2 µM | 9.46 | > 128 µM | 4 µM | > 64 µM | 32 µM | 16 µM | 16 µM | 16 µM | > 128 µM | 162.49 | > 64 µM | 16 µM | 2 µM | 4 µM | 16 µM | > 64 µM | > 64 µM | 16 µM | Stability (Trypsin): Stable; Stability [20]: Unstable; hemolysis at 1 h, up to 128 µM [21]: < 5%; MBC (Escherichia coli [22]): 32 µM; Ratio [23]: 7.03; MBC [24]: > 64 µM; MIC95 (Pseudomonas aeruginosa [25]): > 64 µM; Stability [26]: Unstable; IC50 (HEK-293T): 5920 µM; Stability [27]: Stable; MBC (Escherichia coli [28]): 64 µM; MBC (Pseudomonas aeruginosa [29]): > 64 µM; Activity (Escherichia coli [30]): Active; MIC95 (Salmonella typhimurium [31]): 64 µM
H-LKPLLKPLLKPLLKPLLKPLLKPLLKPL-NH2 | 1 µM | 1 µM | 9.01 | 2 µM | 2 µM | 1 µM | 1 µM | 1 µM | 1 µM | 1 µM | 8 µM | 17.49 | 8 µM | 2 µM | 1 µM | 1 µM | 1 µM | 8 µM | 2 µM | > 64 µM | Stability (Chymotrypsin): Unstable; Stability [32]: Unstable; survival at 5 mg/kg (Escherichia coli [33]): 37.5%; Stability (Trypsin): Stable; MBC (Escherichia coli [22]): 1 µM; Ratio [23]: 94.5; MBC [24]: 4 µM; MIC95 (Pseudomonas aeruginosa [25]): 2 µM; Stability [26]: Unstable; IC50 (HEK-293T): 47.4 µM; MBC (Escherichia coli [28]): 2 µM; MBC (Pseudomonas aeruginosa [29]): 16 µM; MIC95 (Salmonella typhimurium [31]): 2 µM
